Laboratory results published in patent US20250257060A1, “OXADIAZOLE COMPOUND, PHARMACEUTICAL COMPOSITION COMPRISING SAME, AND USE THEREOF” (SUZHOU GENHOUSE BIO CO., LTD., priority 2022, published 2025).

Legend:
[1] = system: acetylation level of α-tubulin in A375 cells; test: Assay on acetylation level of α-tubulin, A375 cells; assay type: cell-based; conditions: Homo sapiens, A-375, 6 h
Experimental: (§1) A375/HCT116/HCC827 cells at a logarithmic growth phase were taken, digested with a […] (trypsin), centrifuged, counted, and plated in a 96-well plate at an appropriate cell density (30,000 cells/well) at 100 µL/well, and an appropriate amount of PBS was added around the plate for water sealing. The next day, the cells were treated with the compounds at different concentrations (starting at 100 μM, 5-fold dilution, 9 concentration gradients). After 6 h, the medium was pipetted out and the cells were washed twice with 100 μL of PBST. The cells were then immobilized in 4% paraformaldehyde, and the plate was incubated at room temperature for 20 min. The stationary liquid was discarded and the cells were washed with PBST. 150 μL of special blocking buffer (containing 1% Triton-100) was added to each well for blocking at room temperature for 2 h, and the plate was washed with PBS to remove excess blocking buffer. α-tubulin (DM1A) mouse mAb and acetyl-α-tubulin (Lys40) (D20G3) XP rabbit mAb were diluted at a 1:2000 ratio with a blocking buffer containing 0.033% Triton-100. The dilutions were added to the 96-well plate and the plate was incubated overnight at 4° C. Meanwhile, a blank control group was set. The next day, the plate was washed twice with PBST. […] Fluorescence signals at 700 nm and 800 nm were detected with a Li-COR Odyssey two-color near-infrared laser imager.

[2] = system: acetylation level of α-tubulin in HCC827 cells; test: Assay on acetylation level of α-tubulin, HCC827 cells; assay type: cell-based; conditions: Homo sapiens, 6 h
Experimental: as §1

[3] = Phase I metabolic stability in dog liver microsomes (DLMs); assay type: in vitro ADME, beagle dogs; design: half-life: dose or concentration left out as unconfirmed; conditions: DLM; for Remaining rate (NCF = 60 min): buffer instead of NADPH regeneration system; for Remaining rate (T = 60 min): with NADPH; for CLint scaled at 1 µM / half-life / microsomal CLint at 1 M: beagle, dog, liver microsomes, pH 7.4; for microsomal CLint at 1 M: read-out: CLint (mic)
Experimental: (§2) Phase I metabolic stability of the test compounds in liver microsomes of CD-1 mice (MLMs), Sprague-Dawley rats (RLMs), beagle dogs (DLMs), cynomolgus monkeys (CLMs), and humans (HLMs) was evaluated.
(§3) The animal and human liver microsomes used in the test system were purchased from Xenotech, Corning, or other qualified suppliers and stored in a freezer at a temperature below −60° C. prior to use.
(§4) The test samples and control compounds were separately incubated with animal and human liver microsomes at 37±1° C. for a period of incubation time up to 60 min. The samples were removed at the indicated time points, and the reaction was stopped with acetonitrile or other organic solvents containing an internal standard. After centrifugation, the resulting supernatants were assayed by liquid chromatography-tandem mass spectrometry (LC-MS/MS).
(§5) 73.21 g of dipotassium hydrogenphosphate trihydrate and 10.78 g of potassium dihydrogenphosphate were dissolved in 4000 mL of ultrapure water. The solution was adjusted to pH 7.40±0.10 with 10% phosphoric acid or 1 M potassium hydroxide to make a final concentration of 100 mM.
(§6) The test sample powder was prepared into a stock solution at a certain concentration with DMSO or other organic solvents, which was then further diluted with a proper organic solvent.
(§7) Microsomes of each species were diluted into a 2× working solution with a 100 mM potassium phosphate buffer. The final concentration of the microsomes in the reaction system was 0.5 mg/mL.
(§8) An appropriate amount of nicotinamide adenine dinucleotide phosphate (NADP) and isocitric acid (ISO) powder was weighed out, dissolved in a magnesium chloride solution, and shaken and mixed well. An appropriate amount of isocitrate dehydrogenase (IDH) was added, and the mixture was mixed well by gently turning upside down. The final concentrations in the reaction system were: 1 mM NADP, 1 mM magnesium chloride, 6 mM ISO, and 1 unit/mL IDH.
(§9) Incubation was performed in a 96-well plate. Eight incubation plates were prepared and designated T0, T5, T15, T30, T45, T60, Blank60, and NCF60, respectively. The first 6 plates corresponded to reaction time points of 0, 5, 15, 30, 45, and 60 min, respectively. No test sample or control compound was added to the Blank60 plate, and samples were taken after 60 min of incubation. In the NCF60 plate, incubation was performed for 60 min using the potassium phosphate buffer instead of the NADPH regeneration system solution. Three replicates were made for samples in all conditions.
(§10) The microsomes and the test sample or control compound were mixed, and then the incubation plates Blank60, T5, T15, T30, T45, and T60 except for TO and NCF60 were placed in a 37° C. water bath for pre-incubation for about 10 min. In the incubation plate TO, a stop solution was first added, followed by addition of the NADPH regeneration system working solution, and 98 μL of the potassium phosphate buffer was added to each sample well of the incubation plate NCF60 to initiate the reaction. After the pre-incubations of the incubation plates Blank60, T5, T15, T30, T45, and T60 were completed, 98 μL of the NADPH regeneration system working solution was added to each sample well to initiate the reaction. The reaction temperature was 37±1° C., the final volume of the reaction was 200 μL, and the reaction system included 0.5 mg/mL microsomes, […], 1 mM NADP, 6 mM ISO, and 1 unit/mL IDH.
(§11) At 5 min, 15 min, 30 min, 45 min, and 60 min, a cold stop solution containing an internal standard was added to the reaction plate to stop the reaction.
(§12) All the reaction plates after the reaction was stopped were shaken well and centrifuged at 3220×g at 4° C. for 20 min. After the supernatant was diluted according to a certain proportion, LC-MS/MS analysis was performed.
(§13) Sample analysis was performed by the liquid chromatography-tandem mass spectrometry (LC-MS/MS) method without standard curves and quality control samples. […]

[4] = Phase I metabolic stability in monkey liver microsomes (CLMs); assay type: in vitro ADME, cynomolgus monkeys; design: microsomal CLint: dose or concentration left out as unconfirmed; conditions: CLM; for Remaining rate (NCF = 60 min): buffer instead of NADPH regeneration system; for Remaining rate (T = 60 min): with NADPH; for CLint scaled at 1 µM / half-life at 1 M / microsomal CLint: cynomolgus monkey, liver microsomes, pH 7.4; for microsomal CLint: read-out: CLint (mic)
Experimental: as §2, §3, §4, §5, §6, §7, §8, §9, §10, §11, §12, §13

Structure (SMILES)	EC50 [1] [nM]	EC50 [2] [nM]	Remaining rate (NCF = 60 min) [3] [%]	Remaining rate (T = 60 min) [3] [%]	CLint scaled at 1 µM [3] [mL/min/kg]	half-life [3] [h]	microsomal CLint at 1 M [3] [µL/min/mg]	Remaining rate (NCF = 60 min) [4] [%]	Remaining rate (T = 60 min) [4] [%]	CLint scaled at 1 µM [4] [mL/min/kg]	half-life at 1 M [4] [h]	microsomal CLint [4] [µL/min/mg]
CC(F)(F)C(=O)N[C@@H]1CCCC[C@H]1N1Cc2ccc(-c3nnc(C(F)F)o3)cc2S1(=O)=O [Compound 1]	393 ± 192	338	98.9	86.6	< 13.8	> 2.42	< 9.6	94.8	79.1	< 13	> 2.42	< 9.6
O=C(N[C@@H]1CCCC[C@H]1N1Cc2ccc(-c3nnc(C(F)F)o3)cc2S1(=O)=O)C(F)F [Compound 2]	202 ± 115	288 ± 49.3	90.9	85.8	< 13.8	> 2.42	< 9.6	101.5	88.8	< 13	> 2.42	< 9.6
